Common to all, as to experiment: Enzyme Inhibition Measurements
Assay [1] concerns the target Cathepsin D (Homo sapiens, UniProt P07339). The procedure: (§1) Enzyme activities were assayed by monitoring the hydrolysis of substrate in the presence or absence of inhibitor compounds. The hydrolysis was recorded as the increase in fluorescence intensity over a 10 min time period. IC50 values were obtained by assuming competitive inhibition and fitting the dose response data to the equation (Vi/V0) =1/ (1 + [I]/IC50)). The Ki was calculated by using Ki = IC50/ (1 + [S]/Km), and a Km value determined according to Michaelis-Menten.

Assay [2] deals with Plasmepsin I (Plasmodium falciparum, UniProt P39898). The procedure: as §1
Assay [3] addresses Plasmepsin II (Plasmodium falciparum (isolate HB3), UniProt P46925). The settings on record: pH 4.5; 22 °C. The procedure: as §1

pKi: −log10 of the molar value.

Chain of Cathepsin D (P07339 65-162 limits assumed): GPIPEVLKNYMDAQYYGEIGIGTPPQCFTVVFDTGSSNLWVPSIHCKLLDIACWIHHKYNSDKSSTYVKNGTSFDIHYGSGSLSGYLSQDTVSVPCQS
Chain of Cathepsin D (P07339 169-412 limits assumed): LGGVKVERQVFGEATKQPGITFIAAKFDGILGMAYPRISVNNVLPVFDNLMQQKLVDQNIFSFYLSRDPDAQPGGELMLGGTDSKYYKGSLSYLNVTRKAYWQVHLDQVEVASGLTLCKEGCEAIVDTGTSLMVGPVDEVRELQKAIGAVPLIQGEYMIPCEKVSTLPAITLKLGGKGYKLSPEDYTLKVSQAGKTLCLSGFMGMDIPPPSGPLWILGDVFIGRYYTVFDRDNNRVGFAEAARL
Chain of Plasmepsin I (P39898 whole entry): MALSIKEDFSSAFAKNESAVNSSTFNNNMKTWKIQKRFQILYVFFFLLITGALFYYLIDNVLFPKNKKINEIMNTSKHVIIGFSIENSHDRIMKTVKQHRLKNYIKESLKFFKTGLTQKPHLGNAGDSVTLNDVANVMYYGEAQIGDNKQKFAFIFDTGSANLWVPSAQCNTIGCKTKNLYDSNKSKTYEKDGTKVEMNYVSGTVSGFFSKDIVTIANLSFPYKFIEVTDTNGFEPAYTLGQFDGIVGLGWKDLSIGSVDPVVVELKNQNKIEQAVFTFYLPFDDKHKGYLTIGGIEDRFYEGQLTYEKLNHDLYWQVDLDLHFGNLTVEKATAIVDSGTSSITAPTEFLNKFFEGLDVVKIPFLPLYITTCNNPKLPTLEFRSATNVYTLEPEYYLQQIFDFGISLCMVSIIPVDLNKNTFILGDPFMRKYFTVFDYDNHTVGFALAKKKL
Chain of Plasmepsin II (P46925 whole entry): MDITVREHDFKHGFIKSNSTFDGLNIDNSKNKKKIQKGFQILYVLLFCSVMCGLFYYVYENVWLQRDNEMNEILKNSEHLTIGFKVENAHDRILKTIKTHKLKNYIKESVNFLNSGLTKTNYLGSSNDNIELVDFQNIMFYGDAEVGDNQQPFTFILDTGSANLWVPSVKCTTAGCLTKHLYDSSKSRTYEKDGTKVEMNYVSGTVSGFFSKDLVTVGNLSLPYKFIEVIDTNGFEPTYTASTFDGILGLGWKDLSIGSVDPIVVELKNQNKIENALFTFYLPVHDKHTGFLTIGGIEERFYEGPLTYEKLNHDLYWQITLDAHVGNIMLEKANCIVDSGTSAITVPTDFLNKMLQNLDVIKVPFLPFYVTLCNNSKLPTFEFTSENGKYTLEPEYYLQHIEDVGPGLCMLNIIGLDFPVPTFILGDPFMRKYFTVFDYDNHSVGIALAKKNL

On to `CC(C)[C@H](NC(=O)c1ccccn1)C(=O)N[C@@H](COCc1ccc(Br)cc1)[C@@H](O)CC(=O)NCC1CCCCC1` [(3S,4S)-5-[(4-bromophenyl)methoxy]-N-(cyclohexylmethyl)-3-hydroxy-4-[(2S)-3-methyl-2-(pyridin-2-ylformamido)butanamido]pentanamide], for which the pKi – broadly, the Ki on a negative log10 scale, so that one unit is a factor of ten – in assay [1] was 6.23; in assay [2], 8.41; in assay [3], 7.39.

The values above are taken from BindingDB's records for doi:10.1021/jm031106i (Linkoping University, 2004).
